US8476255B2, “Histone deacetylase inhibitors” (Orchid Chemicals & Pharmaceuticals Limited, priority 2007, dated 2013)
Read-outs that look alike come from different tables or passages of the source.

Experiments:
[1] = test system: HDAC (Mouse Liver Extract); assay: HDAC inhibition assay using Boc-Lys(Ac)-AMC substrate; type: biochemical; conditions: mouse liver enzyme
Description: Inhibition of HDAC has been implicated to modulate transcription and to induce apoptosis or differentiation in cancer cells. The fluorometric assay provides a fast and fluorescence based method that eliminates radioactivity, extractions or chromatography, as used in traditional assays. The assay is based on two steps. First, the HDAC fluorometric substrate, which comprises an acetylated lysine side chain, is incubated with a sample containing HDAC activity (Mouse Liver Extract). Deacetylation of the substrate sensitizes the substrate, in the second step; treatment with the Trypsin stop solution produces a fluorophore that can be easily analyzed using fluorescence plate reader. Assay was done in 96-well black microplate and total volume of the assay was […]. […] The plate was pre-incubated at 37° C. for 5 minutes. […] The plate was incubated at 37° C. for 30 min. The reaction was stopped by adding 100 μL, of Trypsin stop solution and incubating at 37° C. for 15-30 min. Measuring the fluorescence at excitation wavelength of 360 nm and emission wavelength of 460 nm monitored the release of AMC. Buffer alone and substrate alone served as blank. […] (Dennis Wegener et al, Anal. Biochem, 321, 2003, 202-208).

[2] = test system: U251 (glioma) cells; assay: Anti-cancer screen (MTT), U251; type: cell-based; conditions: Homo sapiens; for GI50: read-out: Cell growth inhibition U251 (Glioma) GI50; for LC50 (concentration giving 50% net cell kill relative to the time-zero cell count): read-out: Cell growth inhibition U251 (Glioma) LC50; for IC (TGI): read-out: Cell growth inhibition U251 (Glioma) TGI
Description: (§1) Experimental drugs were screened for anti-cancer activity in three cell lines using five concentrations for each compound. The cell lines —HCT 116 (colon), NCIH460 (lung) and U251 (glioma) were maintained in DMEM containing 10% fetal bovine serum. 96-well microtiter plates are inoculated with cells in 100 μL of cell suspension (5×10^4 cells/mL) for 24 hours at 37° C., 5% CO2, 95% air and 100% relative humidity. A separate plate with these cell lines is also inoculated to determine cell viability before the addition of the compounds (T0).
(§2) Following 24-hours incubation, test compounds were added to the 96 well plates. Each plate contains one of the above cell lines and the following samples in triplicate: five different dilutions (0.01, 0.1, 1, 10 and 100 μM) of four test compounds, appropriate dilutions of a cytotoxic standard and growth medium (untreated) wells. Test compounds were dissolved in DMSO to prepare 20 mM stock solutions on the day of drug addition and serial dilutions were carried out in complete growth medium at 2× strength such that 100 μL added to wells gave final concentrations (0.01, 0.1, 1, 10 and 100 μM) in the well. SAHA was used as standard drug in these experiments.
(§3) For T0 measurement, 24 hours after seeding the cells, 20 μL of 3-(4,5-dimethyl-2-thiazolyl)-2,5-diphenyl-2H-tetrazolium (MTT) solution per well was added to the ‘T0’ plate and incubated for 3 hours at 37° C. in a CO2 incubator. The plate containing cells and test compounds was treated similarly after 48 hours of incubation. After 3 hours of MTT addition, well contents were aspirated carefully followed by addition of 150 μL DMSO per well. Plates were agitated to ensure dissolution of the formazan crystals in DMSO and absorbance was read at 570 nm (A570).
(§4) (Mosmann T. Rapid colorimetric assay for cellular growth and survival: application to proliferation and cytotoxicity assays. J Immunol Methods 1983; 65(1-2): 55-63; Anne Monks et al. Feasibility of high-flux anticancer drug screen using a diverse panel of cultured human tumor cell lines”. JNCI, Vol. 83, No. 11, 1991).

[3] = test system: NCIH460 (lung) cells; assay: Anti-cancer screen (MTT), NCIH460; type: cell-based; conditions: Homo sapiens; for GI50: read-out: Cell growth inhibition NCIH460 (Lung) GI50; for LC50: read-out: Cell growth inhibition NCIH460 (Lung) LC50; for IC (TGI): read-out: Cell growth inhibition NCIH460 (Lung) TGI
Description: as §1, §2, §3, §4

[4] = test system: NCIH460, HCT116 and U251 cells; assay: Anti-cancer screen, mean GI50 over cell lines; type: cell-based; conditions: read-out: Cell growth inhibition Mean GI50
Description: as §1, §2, §3, §4

[5] = test system: HCT 116 (colon) cells; assay: Anti-cancer screen (MTT), HCT 116; type: cell-based; conditions: Homo sapiens; for GI50: read-out: Cell growth inhibition HCT116 (Colon) GI50; for CC50: read-out: Cell growth inhibition HCT116 (Colon) LC50; for IC (TGI): read-out: Cell growth inhibition HCT116 (Colon) TGI
Description: as §1, §2, §3, §4

[6] = NCI-H460, NCIH460, 48 hours, MTT

Compound	HDAC inhibition % (1 μM) [1]	HDAC inhibition % (10 μM) [1]	IC50 [1]	GI50 ([2]; U-251, U251, 48 hours, MTT)	LC50 (concentration giving 50% net cell kill relative to the time-zero cell count) ([2]; U-251, U251, 48 hours, MTT)	IC (TGI) ([2]; U-251, U251, 48 hours, MTT)	GI50 [3, 6]	LC50 [3, 6]	IC (TGI) [3, 6]	GI50 ([4]; mean over cell lines)	GI50 ([5]; HCT-116, HCT116, 48 hours, MTT)	CC50 ([5]; HCT-116, HCT116, 48 hours, MTT)	IC (TGI) ([5]; HCT-116, HCT116, 48 hours, MTT)	also measured
CSc1ccc(/C=C(/C(=O)NCCCCCC(=O)NO)c2ccccc2Cl)cc1 [Compound 95, 6-(2-(2-Chlorophenyl)-3-(4-methylthiophenyl)acrylamido)-N-hydroxy hexanamide]	60.8%	92.0%	10 nM	0.1 µM	64 µM	11 µM	6 µM	72 µM	40 µM	3 µM	3 µM	66 µM	14 µM	
O=C(CCCCCNC(=O)NC(=O)/C(=C/c1ccc(F)c(F)c1)c1ccc(F)cc1)NO [Compound 100]	77.1%	96.3%		28 µM	84 µM	62 µM	40 µM	96 µM	70 µM	25.6 µM	8.8 µM	82 µM	46 µM	
Nc1ccccc1NC(=O)c1ccc(CNC(=O)/C(=C/c2c(F)cc(F)cc2F)c2ccc(F)cc2)cc1 [Compound 13, N-(2-Aminophenyl)-4-((3-(2,4,6-trifluorophenyl)-2-(4-fluorophenyl)acrylamido)methyl)benzamide]	9.4%	18.2%		3.4 µM	48 µM	8 µM	34 µM	93 µM	66 µM	15.4 µM	8.9 µM	90 µM	50 µM	
COC(=O)c1ccc(/C=C(/C(=O)NCc2ccc(C(=O)Nc3ccccc3N)cc2)c2ccccc2F)cc1 [Compound 34, N-(2-Aminophenyl)-4-((3-(4-carbmethoxyphenyl)-2-(2-fluorophenyl)acrylamido)methyl)benzamide]	23.1%	42.3%		0.7 µM	65 µM	23 µM	10.1 µM	> 100 µM	90 µM	4.2 µM	1.8 µM	> 100 µM	13 µM	
CSc1ccc(/C=C(/C(=O)NCCCCCC(=O)NO)c2ccc(C)cc2)cc1 [Compound 96, 6-(2-(4-Methylphenyl)-3-(4-methylthiophenyl)acrylamido)-N-hydroxy hexanamide]	84.1%	98.5%	10 nM											GI50 ([2]; U-251, 48 h): 8 µM; LC50 (concentration giving 50% net cell kill relative to the time-zero cell count) ([2]; U-251, 48 h): 60 µM; IC (TGI) ([2]; U-251, 48 h): 22 µM; GI50 ([3]; NCI-H460, 48 h): 8 µM; LC50 ([3]; NCI-H460, 48 h): 60 µM; IC (TGI) ([3]; NCI-H460, 48 h): 21 µM; GI50 [4]: 7.3 µM; GI50 ([5]; HCT-116, 48 h): 6 µM; CC50 ([5]; HCT-116, 48 h): > 100 µM; IC (TGI) ([5]; HCT-116, 48 h): 27 µM
O=C(CCCCCNC(=O)/C(=C/c1c(F)cc(F)cc1F)c1ccc(F)cc1)NO [Compound 89, 6-(2-(4-Fluorophenyl)-3-(2,4,6-trifluorophenyl)acrylamido)-N-hydroxy hexanamide]	64.9%	97.6%	30 nM	4 µM	81 µM	6.7 µM	3 µM	45 µM	13 µM	3.7 µM	4 µM	83 µM	10 µM	
COc1ccc(/C(=C\c2ccc(F)cc2)C(=O)NCc2ccc(C(=O)NO)cc2)cc1 [Compound 49, 4-((2-(4-Methoxyphenyl)-3-(4-fluorophenyl)acrylamido)methyl)-N-hydroxybenzamide]	45.5%	69.7%	330 nM	5.4 µM	81 µM	34.5 µM	19 µM	89 µM	52.5 µM	9.2 µM	3.3 µM	66 µM	9 µM	
Nc1ccccc1NC(=O)c1ccc(CNC(=O)/C(=C/c2ccccc2F)c2ccc(Cl)cc2)cc1 [Compound 3, N-(2-Aminophenyl)-4-((3-(2-fluorophenyl)-2-(4-chlorophenyl)acrylamido)methyl)benzamide]	5.1%	16.4%		16 µM	85 µM	39 µM	0.6 µM	> 100 µM	52 µM	6.6 µM	3.2 µM	100 µM	10 µM	
Nc1ccccc1NC(=O)c1ccc(CNC(=O)/C(=C/c2ccc(F)c(C(F)(F)F)c2)c2ccc(C(F)(F)F)cc2)cc1 [Compound 4, N-(2-Aminophenyl)-4-((3-(4-fluoro-3-trifluoromethylphenyl)-2-(4-trifluoromethylphenyl)acrylamido)methyl)benzamide]	0.0%	14.2%		11.5 µM	> 100 µM	41 µM	0.2 µM	58.5 µM	3.8 µM	5.3 µM	4.1 µM	77 µM	26 µM	
O=C(NCc1ccc(C(=O)NO)cc1)/C(=C/c1ccc(F)cc1)c1ccccc1 [Compound 51, 4-((2-(Phenyl)-3-(4-fluorophenyl)acrylamido)methyl)-N-hydroxybenzamide]	74.5%	90.8%		6 µM	72 µM	48 µM	24 µM	86 µM	60 µM	12.5 µM	7.5 µM	83 µM	36 µM	
